Measured values from ChEMBL document CHEMBL1201862, “PubChem BioAssay data set” (2004).
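Step 1: Grow cells in 96-well plates. Step 2: Expose to compound for 48 hours at 5 concentrations. Step 3: Interpolate endpoints linearly; if unreached, use highest concentration. GI50: concentration for 50% inhibition of growth.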 The source made the active and inactive calls. Rule as the data show it: active = GI50 up to about 1.1 µM and inactive = higher.

Experiments:
Experiment in all cases: DTP human tumour cell line panel, 48 h
786-0 = system: 786-0
A549 = system: A549
HL-60 = system: HL-60
HOP-62 = system: HOP-62
HOP-92 = system: HOP-92
Hs-578T = system: Hs-578T
LOX IMVI = system: LOX IMVI
MDA-MB-231 = system: MDA-MB-231
MDA-MB-435 = system: MDA-MB-435
Malme-3M = system: Malme-3M
OVCAR-3 = system: OVCAR-3
PC-3 = system: PC-3
RPMI-8226 = system: RPMI-8226
RXF 393 = system: RXF 393
SF-268 = system: SF-268
SK-MEL-28 = system: SK-MEL-28
SN12C = system: SN12C
SNB-75 = system: SNB-75
T47D = system: T47D
UACC-257 = system: UACC-257

Measured: GI50

c1cc(-c2ccc(Oc3ccc(-c4ccncc4)cc3)cc2)ccn1
inactive: 786-0 6.81 µM | A549 4.91 µM | HL-60 2.18 µM | HOP-62 23.6 µM | HOP-92 14.1 µM | Hs-578T 12.8 µM | LOX IMVI 9.18 µM | MDA-MB-231 18.3 µM | MDA-MB-435 1.85 µM | Malme-3M 6.82 µM | OVCAR-3 6.14 µM | PC-3 27 µM | RPMI-8226 1.67 µM | RXF 393 25.6 µM | SF-268 22.6 µM | SK-MEL-28 > 26.7 µM | SN12C 23.3 µM | SNB-75 15.9 µM | T47D 5.13 µM | UACC-257 4.91 µM

O=C1C(N2CCN(CCOCCO)CC2)=C(Cl)C(=O)c2ncccc21
inactive: 786-0 21.4 µM | A549 > 10 µM | HL-60 3.06 µM | HOP-62 > 10 µM | HOP-92 2.62 µM | Hs-578T > 10 µM | LOX IMVI 12.7 µM | MDA-MB-231 19.2 µM | MDA-MB-435 1.88 µM | Malme-3M 8.77 µM | OVCAR-3 18.5 µM | PC-3 20.7 µM | RPMI-8226 19 µM | RXF 393 20 µM | SF-268 20.6 µM | SK-MEL-28 22.2 µM | SN12C 19.5 µM | SNB-75 38.3 µM | T47D 2.58 µM | UACC-257 22 µM

O=C(Nc1ccccc1)N(CCN(Cc1ccccc1)C(=O)Nc1ccccc1)CCN(Nc1ccccc1)C(=O)Nc1ccccc1
inactive: 786-0 > 100 µM | A549 > 100 µM | HL-60 > 100 µM | HOP-62 > 100 µM | HOP-92 > 100 µM | Hs-578T > 100 µM | LOX IMVI > 100 µM | MDA-MB-231 > 100 µM | MDA-MB-435 > 100 µM | Malme-3M > 100 µM | OVCAR-3 > 100 µM | PC-3 > 100 µM | RPMI-8226 > 100 µM | RXF 393 > 100 µM | SF-268 > 100 µM | SK-MEL-28 > 100 µM | SN12C > 100 µM | SNB-75 > 100 µM | T47D > 100 µM | UACC-257 > 100 µM

O=c1cc(N2CCNCC2)nc2ccccn12
inactive: 786-0 > 100 µM | A549 > 100 µM | HL-60 > 100 µM | HOP-62 > 100 µM | HOP-92 > 100 µM | Hs-578T > 100 µM | LOX IMVI > 100 µM | MDA-MB-231 > 100 µM | MDA-MB-435 > 100 µM | Malme-3M > 100 µM | OVCAR-3 > 100 µM | PC-3 > 100 µM | RPMI-8226 > 100 µM | RXF 393 > 100 µM | SF-268 > 100 µM | SN12C > 100 µM | SNB-75 > 100 µM | T47D > 100 µM | UACC-257 > 100 µM

COC(=O)C(Cc1ccccc1)NC(=O)CSc1nnc(COc2ccc(Cl)cc2)n1-c1ccccc1 (stereo not drawn)
inactive: 786-0 16.3 µM | A549 39.4 µM | HL-60 20.6 µM | HOP-62 15 µM | HOP-92 26.4 µM | Hs-578T 26.7 µM | LOX IMVI 14.6 µM | MDA-MB-231 18.6 µM | MDA-MB-435 19.1 µM | Malme-3M 19.7 µM | PC-3 22.8 µM | RPMI-8226 20.5 µM | RXF 393 19.1 µM | SF-268 25.7 µM | SK-MEL-28 27.2 µM | SN12C 21.2 µM | SNB-75 23.8 µM | T47D 26.1 µM | UACC-257 13.1 µM

O=c1ssc(Cl)c1Nc1c(Cl)ssc1=O
inactive: 786-0 17.8 µM | A549 21.7 µM | HL-60 7.85 µM | HOP-62 20.7 µM | HOP-92 20 µM | Hs-578T 36.4 µM | LOX IMVI 14.8 µM | MDA-MB-231 22.3 µM | MDA-MB-435 18 µM | Malme-3M 17.9 µM | OVCAR-3 20.5 µM | PC-3 18.9 µM | RPMI-8226 9.08 µM | RXF 393 15 µM | SF-268 23.1 µM | SK-MEL-28 28.4 µM | SN12C 19.5 µM | SNB-75 25.9 µM | T47D 9.2 µM | UACC-257 16.5 µM

Cn1c2ccccc2c2cc(-c3ccccc3)c3c(c21)C(=O)C=CC3=O
inactive: 786-0 8.15 µM | A549 60.1 µM | HL-60 4.52 µM | HOP-62 28.8 µM | HOP-92 14.5 µM | Hs-578T 28.9 µM | LOX IMVI 18.6 µM | MDA-MB-231 23.2 µM | MDA-MB-435 15.1 µM | Malme-3M 19.5 µM | OVCAR-3 16.4 µM | PC-3 18.4 µM | RPMI-8226 2.45 µM | RXF 393 15.8 µM | SF-268 28.4 µM | SK-MEL-28 20.4 µM | SN12C 21.7 µM | SNB-75 27.6 µM | T47D 9.55 µM | UACC-257 21.6 µM
